The source of these data is patent US20240114949A1, “AEROSOLIZABLE MATERIAL” (Nicoventures Trading Limited, priority 2019, published 2024).

This data set is described as follows: Solubility of cannabidiol isolate in glycerol/propylene glycol/water solutions. To be noted: Isolate 10 mg/mL. The format is physicochemical.

As to `C=C(C)[C@@H]1CCC(C)=C[C@H]1c1c(O)cc(CCCCC)cc1O` [Isolate, cannabidiol], the Soluble result (Glycerol 36, PG 52.09, Water 11 (w/w)) was “YES” and the Soluble result (Glycerol 36, PG 53.09, Water 10 (w/w)) is “YES”. Further, the soluble at 10 mg/mL (yes/no) (glycerol/propylene glycol/water solution, organic solvent or mixture, Glycerol 36, PG 47.09, Water 16 (w/w)) was less than 10000 µg/mL.
